{
  "source": "patent US9377466B2",
  "about": "“Compounds and methods” (Modpro AB, priority 2010, dated 2016)",
  "key": {"[1]": {"experiment": "CD spectroscopy, mean residue ellipticity of the sixteen scaffold polypeptides", "format": "physicochemical", "details": "error ±1000", "method": "The mean residue ellipticities at 222 nm, [θ]222, □ of the sixteen scaffold polypeptides were recorded at two concentrations, approximately 30 μM and approximately 1 μM, to characterize the state of aggregation, cf.\nThe degree of helix formation is related to the monomer-dimer equilibrium since monomers are unordered with low helical content whereas dimers are highly helical. […] While the ^1H NMR spectra have not been recorded of all sequences and of all polypeptide conjugates, it is likely that the sequences presented here are best described as molten globules."}, "[2]": {"test_system": "α-casein", "experiment": "Three-step fluorescence titration with α-casein (microtitre plate)", "format": "binding", "details": "polypeptide without PP1; binder in the absence of Zn^2+ ions", "method": "In a preliminary and simple assay executable in microtitre plate format, each of the eight binder candidates at a concentration of 500 nM in 10 mM HEPES buffer and 150 mM NaCl at pH 7.2, equipped with the fluorophor 7-methoxycoumarin-3-carboxylic acid, were titrated with α-casein in three steps (FIG. 8). Concentrations of peptides were determined from the absorbance of the coumarine probe and stock solutions at concentrations of 5 μM were prepared from which aliqiuots were transferred to the microtitre plate. […] The fluorescence emission spectre were recorded in the absence of protein, and in the presence of 500 nM, 1000 nM and 1500 nM protein to determine in a qualitative way whether or not binding was saturated at 500 nM concentration of both binder and protein. Saturation within experimental error at those concentrations is compatible with low nM affinity and tight binding.\nAll fluorescence experiments were conducted in 96 well polystyrene plates. All readings were performed by plate reader Molecular Devices Spectra max GEMINI XPS at 25° C. Each plate contained 300 μL of analyte. All polystyrene plates were specially prepared prior the measurements in order to minimize the unspecific binding of the analyte. All wells were filled with 1% aqueous solution of Pluronic and left overnight. […]"}, "[3]": {"target": "phosphopeptides", "details": "literature; cited from earlier work"}, "[4]": {"target": "T1, hAChE (Homo sapiens, UniProt P22303)", "T1 construct": "monitoring the capturing of hAChE from cerebrospinal fluid (CSF) obtained from Uppsala University hospital; from tissue; host or cells: human cerebrospinal fluid (Uppsala University Hospital)", "T1 sequence (P22303 32-614)": "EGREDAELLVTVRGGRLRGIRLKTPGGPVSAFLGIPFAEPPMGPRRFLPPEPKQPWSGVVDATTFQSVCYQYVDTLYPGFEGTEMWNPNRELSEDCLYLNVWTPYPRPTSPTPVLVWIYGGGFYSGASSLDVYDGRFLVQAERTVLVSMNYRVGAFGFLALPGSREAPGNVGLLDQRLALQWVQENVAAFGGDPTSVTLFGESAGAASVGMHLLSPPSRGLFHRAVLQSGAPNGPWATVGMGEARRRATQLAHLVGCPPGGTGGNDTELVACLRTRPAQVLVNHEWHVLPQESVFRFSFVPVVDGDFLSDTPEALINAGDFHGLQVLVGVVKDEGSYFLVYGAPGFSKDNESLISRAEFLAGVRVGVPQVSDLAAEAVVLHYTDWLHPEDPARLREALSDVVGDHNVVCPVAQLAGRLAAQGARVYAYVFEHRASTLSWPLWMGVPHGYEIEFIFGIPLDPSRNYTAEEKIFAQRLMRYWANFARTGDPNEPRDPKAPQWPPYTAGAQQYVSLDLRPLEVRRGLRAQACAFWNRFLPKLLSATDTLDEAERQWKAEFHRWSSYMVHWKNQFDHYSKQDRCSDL", "experiment": "Capture of hAChE from cerebrospinal fluid by binder on nanoparticles (SDS-PAGE, nanoparticle ELISA)", "format": "binding", "details": "binder on Pluronic-coated polystyrene nanoparticles, patient CSF, sandwich ELISA", "method": "The selectivity of 4-C10L17-Ac was determined by monitoring the capturing of hAChE from cerebrospinal fluid (CSF) obtained from Uppsala University hospital. CSF represents a complex biological milieu with several other proteins in high concentration and one of considerable interest with regards to future applications. The selected binder was resynthesized with an acetamidomethyl-(Acm-) protected Cys residue in position 24, instead of an Ala in this position, and attached to polystyrene nanoparticles coated with Pluronic® F108-PDS by disulfide bond formation after Acm deprotection. […] After the washing steps the particles were analyzed by ELISA and gel electrophoresis. […]\nThe capture of hAChE by 4-C10L17-Ac was also analyzed by a nanoparticle ELISA based on luminescence. […] After three washing steps the substrate luminol was added and the resulting luminescent signal recorded. […]\nPluronic F108-PDS (Allvivo Inc.) was adsorbed to polystyrene latex nanoparticles (Bangs laboratories Inc.) by incubating a 2% (w/v) suspension of particles with 10 mg/mL of Pluronic F108-PDS over night at room temperature under constant shaking. […] Aliquots of 8 μL of the supernatants were analyzed by gradient SDS-PAGE gels electrophoresis using NuPAGE® Novex Bis-Tris 4-12% (v/w) gel and MES running buffer (Invitrogen). […]"}, "[5]": {"experiment": "Solubility in buffer", "details": "sequence conjugated to a fluorescein probe"}, "[6]": {"target": "T2, HCAII (Homo sapiens, UniProt P00918)", "T2 construct": "purchased Sigma", "experiment": "SPR biosensor analysis, immobilized HCAII", "format": "binding", "details": "ratio of SPR dissociation constants", "method": "The sixteen polypeptide conjugates were also characterized by SPR biosensor analysis (Biacore®, GE Healthcare), using a Biacore® 2000 instrument, Biacore® CM-5 chip and HBS-EP buffer pH 7.4 (Biacore®, GE Healthcare) with addition of 1% DMSO for the interaction studies. Peptide solutions were prepared by dilution in buffer from 20 μM stock solutions in DMSO. HCAII was immobilized on the chip using standard EDC/NHS coupling in Acetate buffer pH 5.5. The binders were allowed to flow over the chip at 7 concentrations in the range from 1 nM to 500 nM and the interactions were evaluated using a 1:1 binding model (BiaEvaluation).\nHCAI and HCAII were immobilized in different flowcells on a CM-5 (Biacore) chip using standard EDC/NHS coupling in Acetate buffer at pH 5.5.\nSPR measurements were performed on a Biacore® 2000 instrument, with the proteins immobilized on a Biacore® CM-5 sensor chips (GE Healthcare). All interaction studies were performed in Biacore® HSB-EP buffer with the addition of 1% (v/v) DMSO. HCAII (Sigma, lyophilized powder) was dissolved in Acetate buffer pH 5.5 to a 2 mg/mL solution. HCAII were conjugated to the surface by EDC/NHS coupling reactions in Acetate buffer pH 5.5. Solutions of the polypeptide binders were prepared in HBS-EP buffer from stock solutions of 20 μM in DMSO and allowed to flow over the surface at 20 μL/min, with blank injections after every series. […]"}, "[7]": {"test_system": "human Carbonic Anhydrase (HCAI and HCAII)", "experiment": "Extraction from lysed blood by binders on nanoparticles (SDS-PAGE, MS)", "format": "binding", "details": "lysed fresh blood, silver stained gel", "method": "The selected binders were resynthesized with an Acm-protected Cys residue in position 24. After removal of the Acm group the binders were immobilized on polystyrene nanoparticles coated with Pluronic® F108-PDS, by incubation for 1 hour in 10 mM Phosphate buffer at pH 7.4 containing 150 mM NaCl. The coating material forms monolayers of PEG equipped with activated disulfide groups that spontaneously react with free thiols under the release of 2-mercaptopyridine (Fromell, K., Hulting, G., Ilichev, A., Larsson, A. & Caldwell, K. C. Analytical Chemistry 79, 8601-07 (2007)).\nApproximately 60 μL of freshly drawn blood was lysed by dilution in 240 μL of distilled water followed by centrifugation to remove cell debris. HCAII resides in the red blood cells and in order to access the protein, cells have to be lysed. The supernatant was isolated and incubated with the functionalized nanoparticles for 30 minutes to allow them to capture HCAII. The particles were washed three times in PBS, and centrifuged after each wash. The binders and the captured proteins were cleaved from the particles using dithiothreitol and separated from the particles by centrifugation. […]\nThere are two isoforms of human Carbonic Anhydrase, HCA I and HCAII, in blood. […] The bands from the gel were cut, […] digested and analysed by MALDI-TOF-MS, displaying that the bands contained both isoforms. […]"}},
  "note": "Side chains are listed from the residue outwards. * marks the point of attachment. Benzoyl(4-SO2NH2) = NS(=O)(=O)c1ccc(C(=O)*)cc1; Acridin9yl = c1ccc2c(*)c3ccccc3nc2c1; X1 = COc1ccc2cc(C(=O)*)c(=O)oc2c1; Ahx = NCCCCCC(=O)O",
  "data": [
    {"compound": "4-C10L17: SEQ ID NO: 8 NAADLEARIKHLRERLKARGPRDAAQLAEQLARAFERFARAG", "values": [
      {"measurement": "[θ]222 at high concentration", "setting": "[1]; high concentration 30-230 μM as listed per peptide", "value": "−19500", "unit": "deg cm^2 dmol^−1"},
      {"measurement": "[θ]222 at low concentration", "setting": "[1]; low concentration 1-5 μM as listed per peptide", "value": "−11800", "unit": "deg cm^2 dmol^−1"},
      {"measurement": "effect of α-casein on fluorescence emission spectrum, negative controls", "setting": "[2]", "value": "No effect"}
    ]},
    {"compound": "O=C(O)c1cc(CN(Cc2ccccn2)Cc2ccccn2)cc(CN(Cc2ccccn2)Cc2ccccn2)c1", "note": "[PP1, 3,5-Bis[[bis(2-pyridylmethyl)amino]methyl]benzoic acid]", "values": [
      {"measurement": "dissociation constants for phosphopeptides", "setting": "[3]", "value": "μM range"}
    ]},
    {"compound": "Ac-NAADLEARIK(X1)HLRERLK([Ahx-Ahx-Acridin9yl])ARGPRDAAQLAEQLARAFERFARAG-NH2 (C-terminus assumed) [4-C10L17-Ac]", "values": [
      {"measurement": "capture of hAChE from CSF", "setting": "[4]", "value": "selectively extract hAChE from CSF"}
    ]},
    {"compound": "Ac-NAADLEARIRHLRERLAARGPRDAAQLAEQLARK([Ahx-Benzoyl(4-SO2NH2)])FEK(X1)FARAG-NH2 (N-terminus and C-terminus assumed) [4-C37L34-B]", "values": [
      {"measurement": "solubility in buffer", "setting": "[5]", "value": "poorly soluble"},
      {"measurement": "discrimination between HCAI and HCAII (factor)", "setting": "[6]", "value": "approximately 30"},
      {"measurement": "proteins extracted from lysed blood", "setting": "[7]", "value": "extract Carbonic Anhydrases predominantly"}
    ]}
  ]
}
